# Measurements from US20110071094A1, “(D)-ALLOSE INDUCING PROGRAMMED CELL DEATH IN HORMONE REFRACTORY PROSTATE CANCER LINES” (INDUSTRY-ACADEMIC COOPERATION FOUDATION, GYEONGSANG …, priority 2008, published 2011).
# How the values were obtained:
# PrEC cell line = experiment: Cell viability / cell growth, MTT assay; type: cell-based; conditions: human NPE cell line PrEC, 0-40 mM
# Protocol: DU145 (human HRPC cell line, derived from a patient with brain metastasis) and PrEC (human normal prostate epithelial cell line) cell lines were obtained from Korea Cell Line Bank (KCLB, Seoul, South Korea). DU145 and PrEC cell lines were grown in triplicate culture plates containing RPMI-1640 (HyClone, Logan, Utah, USA) and Dulbecco's Modified Eagle's Medium (HyClone, Logan, Utah, USA) respectively, and kept in a humidified atmosphere containing 5% CO2 at 37° C. for 72 h. The media were supplemented with 10% heat-inactivated fetal bovine serum (HyClone, Logan, Utah, USA), 1% antibio-antimicotic solution containing 10,000 units/ml of penicillin and 10 mg/ml of streptomycin (HyClone, Logan, Utah, USA), HEPES, sodium bicarbonate, p-aminobenzoic acid and insulin (complete culture media). […]
# (§1) The logarithmic growth phase of DU145 and PrEC cell lines were taken for growth assay using 3-[4,5-dimethylthiazol-2-yl]-2,5-diphenyl tetrazolium bromide (MTT). […] After incubation for the specified time at 37° C. in a humidified 5% CO2 incubator, cell viability was determined. […] To achieve solubilization of formazan crystal formed in viable cells, DMSO was added to each well, and the absorbance was recorded on a microplate reader at 595 nm wavelength. The effect of sugars on growth inhibition was assessed as percent cell viability where control cells were taken as 100% viable.
# DU145 cell line [1] = experiment: Cell viability / cell growth, MTT assay; type: cell-based, human
# Protocol: DU145 (human HRPC cell line, derived from a patient with brain metastasis) and PrEC (human normal prostate epithelial cell line) cell lines were obtained from Korea Cell Line Bank (KCLB, Seoul, South Korea). DU145 and PrEC cell lines were grown in triplicate culture plates containing RPMI-1640 (HyClone, Logan, Utah, USA) and Dulbecco's Modified Eagle's Medium (HyClone, Logan, Utah, USA) respectively, and kept in a humidified atmosphere containing 5% CO2 at 37° C. for 72 h. The media were supplemented with 10% heat-inactivated fetal bovine serum (HyClone, Logan, Utah, USA), 1% antibio-antimicotic solution containing 10,000 units/ml of penicillin and 10 mg/ml of streptomycin (HyClone, Logan, Utah, USA), HEPES, sodium bicarbonate, p-aminobenzoic acid and insulin (complete culture media). D-Allose was purchased from Sigma (St. Louis, Mo., USA) and dissolved at a concentration of 1 M in sterile phosphate-buffered saline (PBS), and was further sterilized by filtration. To examine the dose- and time-dependent effects, the cell lines (70-80% confluent) were treated with 0-40 mM of D-allose for up to 72 h, whereas without D-allose treated cell lines (0 mM) were considered as control. DU145 cell line was also treated with 0-40 mM of D-glucose. All the other chemicals used in the work were procured from Sigma (St. Louis, Mo., USA), unless otherwise specified.
# as §1
# PARP = experiment: Western blot analysis of PARP protein in DU145; type: cell-based, human; conditions: DU145, 0, 20 and 40 mM, 72 h
# Protocol: (§2) After 0, 20 and 40 mM of D-allose treatments for 72 h, DU145 cell line (1×10^6 cells in triplicate culture plates) was harvested into cell lysis buffer (Cell Signaling, Danvers, Mass., USA) supplemented with 1 mM PMSF. The cells were then sonicated, centrifuged and protein concentration was measured by Bradford assay with the Bio-Rad protein assay solution using bovine serum albumin (BSA) as standard. Proteins (30 μg) were separated on a 12.5% SDS-PAGE under reducing conditions and transferred onto a PVDF membrane (Santa Cruz Biotechnology, Santa Cruz, Calif., USA). Prestained protein marker, broad range: 6-175 kDa (New England Biolabs Inc., Ipswich, Mass., USA) run in parallel for detection of the molecular weights of the proteins. Membrane was blocked with 5% (w/v) skimmed milk in order to reduce non-specific binding and immunoblotting was performed using rabbit derived anti-Bcl-2, anti-Bax, anti-Caspase 3 and anti-PARP antibodies (1:500; Santa Cruz Biotechnology, Santa Cruz, Calif., USA). […] Membrane was probed with a goat derived horseradish peroxidase-conjugated anti-rabbit IgG (1:1000; Santa Cruz Biotechnology, Santa Cruz, Calif., USA), and proteins were detected by the enhanced chemiluminescence (ECL) detection system according to the vendor's protocol (Amersham Biosciences, Piscataway, N.J., USA) followed by X-ray exposure. […]
# Bcl-2 = experiment: Western blot analysis of Bcl-2 protein in DU145; type: cell-based, human; conditions: DU145, 20 and 40 mM, 72 h
# Protocol: as §2
# DU145 cell line [2] = experiment: Fura-2 measurement of [Ca^2+]c; type: cell-based, human; conditions: DU145, 20 and 40 mM, 48 h
# Protocol: [Ca^2+]c was measured by fluorescent indicator fura-2 acetoxymethyl ester (fura-2 AM) as described in Malgaroli A et al., J. Cell. Biol. 105:2145-2155, 1987. Briefly, DU145 cell line (1×10^6 cells in triplicate culture plates) was exposed to 0, 20 and 40 mM of D-allose for 48 and 72 h and then incubated with serum-free culture media containing 5 μM of fura-2AM at 37° C. in dark for another 1 h. The cells were washed twice with Locke's solution (pH 7.3) and the fura-2 fluorescence signals of [Ca^2+]c were measured by luminescence spectrophotometer (LS 50B, Perkin Elmer, Boston, Mass., USA) using 340 and 380 nm as excitation wavelengths (λex), and 510 nm as emission wavelength (λem). […] The slides were mounted with Prolong Antifade reagent (Molecular Probes, Eugene, Oreg., USA), and images (JC-1, green) were acquired by use of a fluorescence microscope (Axioplan 2, Carl Zeiss, Germany).
compound,measurement,setting,value
O=C[C@H](O)[C@H](O)[C@H](O)[C@H](O)CO [D-allose],effect on growth of PrEC cell line,PrEC cell line,no remarkable effect
same,cell growth (MTT assay),"DU145 cell line [1]; DU145, 0-40 mM, compared to control",significant dose-dependent inhibition of cell growth
same,time dependence of cell growth inhibition (MTT assay),"DU145 cell line [1]; DU145, 24, 48 and 72 h","time-dependent inhibition of DU145 cell growth, which was more pronounced at 72 h post-treatment"
same,cleaved PARP product,PARP,concomitant increase
same,full length PARP protein expression,PARP,remarkable dose-dependent decrease
same,Bcl-2 protein expression,Bcl-2,significantly decreased
same,[Ca^2+]c,DU145 cell line [2],remarkably elevated
